# From patent US20250235566A1, “[…]-[…] LABELING PRECURSORS AND RA[…] THEREFROM” (Medianezia GmbH, priority 2021, published 2025)
# Experiments:
# Assay type in all cases: biochemical
# [1] = target: T1, rhFAP (fibroblast activation protein) (Homo sapiens, UniProt Q12884); experiment: FAP IC50 measurement with Z-Gly-Pro-AMC substrate; details: Z-Gly-Pro-AMC 50 μM, pH=8, 15 min pre-incubation at 37° C.
# T1 construct: made in house
# T1 sequence (Q12884 1-760): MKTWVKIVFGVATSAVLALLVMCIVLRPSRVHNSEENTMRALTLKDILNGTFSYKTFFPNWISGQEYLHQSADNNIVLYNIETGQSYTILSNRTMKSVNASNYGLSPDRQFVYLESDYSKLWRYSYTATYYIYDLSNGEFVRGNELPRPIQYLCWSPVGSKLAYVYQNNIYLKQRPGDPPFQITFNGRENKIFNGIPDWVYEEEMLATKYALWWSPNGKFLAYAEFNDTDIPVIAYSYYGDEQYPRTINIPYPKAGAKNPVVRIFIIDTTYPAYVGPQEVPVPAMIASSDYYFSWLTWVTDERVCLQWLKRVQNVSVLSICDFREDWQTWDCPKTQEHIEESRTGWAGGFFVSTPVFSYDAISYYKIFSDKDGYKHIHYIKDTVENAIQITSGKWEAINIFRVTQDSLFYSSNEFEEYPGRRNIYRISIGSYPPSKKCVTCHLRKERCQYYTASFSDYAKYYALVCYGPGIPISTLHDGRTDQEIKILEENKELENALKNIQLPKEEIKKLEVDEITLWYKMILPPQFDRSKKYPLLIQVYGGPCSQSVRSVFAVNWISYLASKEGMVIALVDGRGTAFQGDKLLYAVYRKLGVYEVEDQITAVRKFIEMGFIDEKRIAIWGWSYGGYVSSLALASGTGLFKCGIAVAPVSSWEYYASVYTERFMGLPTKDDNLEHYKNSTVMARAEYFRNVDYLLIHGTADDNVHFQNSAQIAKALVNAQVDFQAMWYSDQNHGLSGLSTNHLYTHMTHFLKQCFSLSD
# Method: (§1) The rhFAP (fibroblast activation protein), PREP (prolyl endopeptidase), DPP4 (dipeptidylpeptidase IV), DPP8 (dipeptidylpeptidase VIII) and DPP 9 (dipeptidylpeptidase IX) enzymes were expressed before use in the in vitro assays and then purified.
# (§2) IC50 measurements were conducted with the Infinite 200 instrument (Tecan Group Ltd.) and evaluated with the Magellan software.
# (§3) The data were evaluated by GraFit 7 using a non-linear fit according to the following equation: […]
# (§4) where y is the remaining enzyme activity compared to the non-inhibited sample, xis the final inhibitor concentration used in the assay, s is the slope factor and IC50 is the […] inhibitory concentration.
# (§5) 8 concentrations of the FAP inhibitors examined were examined, with always the same DMSO concentration. The inhibitors were pre-incubated at 37° C. for 15 min before the Z-Gly-Pro-AMC substrate was added. The release kinetics of AMC were measured at an excitation wavelength λex=380 nm and emission wavelength Δem=465 nm for at least 10 min.
# [2] = target: T2, PREP (prolyl endopeptidase) (Homo sapiens, UniProt P48147); experiment: PREP IC50 measurement with N-succinyl-Gly-Pro-AMC substrate; details: N-succinyl-Gly-Pro-AMC 250 μM, pH=7.4
# T2 construct: made in house
# T2 sequence (P48147 1-710): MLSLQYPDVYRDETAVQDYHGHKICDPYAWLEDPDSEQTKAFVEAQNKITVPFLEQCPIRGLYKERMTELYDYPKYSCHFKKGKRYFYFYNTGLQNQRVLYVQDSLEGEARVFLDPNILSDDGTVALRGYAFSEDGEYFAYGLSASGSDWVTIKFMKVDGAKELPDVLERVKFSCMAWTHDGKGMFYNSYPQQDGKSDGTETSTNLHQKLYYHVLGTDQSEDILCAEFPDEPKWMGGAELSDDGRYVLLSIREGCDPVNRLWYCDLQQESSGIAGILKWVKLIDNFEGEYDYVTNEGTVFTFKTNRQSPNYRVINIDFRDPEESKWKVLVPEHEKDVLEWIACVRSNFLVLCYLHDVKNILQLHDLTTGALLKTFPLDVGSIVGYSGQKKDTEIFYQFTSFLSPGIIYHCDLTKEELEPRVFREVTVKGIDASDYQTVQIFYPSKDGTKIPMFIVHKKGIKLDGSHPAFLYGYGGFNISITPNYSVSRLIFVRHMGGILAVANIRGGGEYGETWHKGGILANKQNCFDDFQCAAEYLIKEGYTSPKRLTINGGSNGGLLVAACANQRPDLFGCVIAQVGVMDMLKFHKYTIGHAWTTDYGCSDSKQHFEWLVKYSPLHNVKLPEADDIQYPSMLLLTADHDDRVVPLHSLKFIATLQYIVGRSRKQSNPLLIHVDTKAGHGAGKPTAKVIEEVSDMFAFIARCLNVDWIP
# Method: as §1, §2, §3, §4
# as §5, with “N-succinyl-Gly-Pro-AMC” for “Z-Gly-Pro-AMC”, “λem=465” for “Δem=465”
# [3] = target: T3, DPP4 (dipeptidylpeptidase IV) (Homo sapiens, UniProt P27487); experiment: DPP4 IC50 measurement with Ala-Pro-pNA substrate; details: Ala-Pro-pNA 25 μM, pH=7.4
# T3 construct: made in house
# Method: as §1, §2, §3, §4
# (§6) At least 8 concentrations of the FAP inhibitors examined were examined, with always the same DMSO concentration. The inhibitors were pre-incubated at 37° C. for 15 min before the Ala-Pro-pNA substrate was added.
# [4] = target: T4, DPP8 (dipeptidylpeptidase VIII) (Homo sapiens, UniProt Q6V1X1); experiment: DPP8 IC50 measurement with Ala-Pro-pNA substrate; details: Ala-Pro-pNA 300 μM, pH=7.4
# T4 construct: made in house
# Method: as §1, §2, §3, §4
# as §6, with “added. The release kinetics of pNA were measured at a wavelength of λex=405 nm for at least 10 min.” for “added.”
# [5] = target: T5, DPP 9 (dipeptidylpeptidase IX) (Homo sapiens, UniProt Q86TI2); experiment: DPP9 IC50 measurement with Ala-Pro-pNA substrate; details: Ala-Pro-pNA 150 μM, pH=7.4
# T5 construct: made in house
# Method: as §1, §2, §3, §4, §6
# T5 sequence (Q86TI2 whole entry, species assumed): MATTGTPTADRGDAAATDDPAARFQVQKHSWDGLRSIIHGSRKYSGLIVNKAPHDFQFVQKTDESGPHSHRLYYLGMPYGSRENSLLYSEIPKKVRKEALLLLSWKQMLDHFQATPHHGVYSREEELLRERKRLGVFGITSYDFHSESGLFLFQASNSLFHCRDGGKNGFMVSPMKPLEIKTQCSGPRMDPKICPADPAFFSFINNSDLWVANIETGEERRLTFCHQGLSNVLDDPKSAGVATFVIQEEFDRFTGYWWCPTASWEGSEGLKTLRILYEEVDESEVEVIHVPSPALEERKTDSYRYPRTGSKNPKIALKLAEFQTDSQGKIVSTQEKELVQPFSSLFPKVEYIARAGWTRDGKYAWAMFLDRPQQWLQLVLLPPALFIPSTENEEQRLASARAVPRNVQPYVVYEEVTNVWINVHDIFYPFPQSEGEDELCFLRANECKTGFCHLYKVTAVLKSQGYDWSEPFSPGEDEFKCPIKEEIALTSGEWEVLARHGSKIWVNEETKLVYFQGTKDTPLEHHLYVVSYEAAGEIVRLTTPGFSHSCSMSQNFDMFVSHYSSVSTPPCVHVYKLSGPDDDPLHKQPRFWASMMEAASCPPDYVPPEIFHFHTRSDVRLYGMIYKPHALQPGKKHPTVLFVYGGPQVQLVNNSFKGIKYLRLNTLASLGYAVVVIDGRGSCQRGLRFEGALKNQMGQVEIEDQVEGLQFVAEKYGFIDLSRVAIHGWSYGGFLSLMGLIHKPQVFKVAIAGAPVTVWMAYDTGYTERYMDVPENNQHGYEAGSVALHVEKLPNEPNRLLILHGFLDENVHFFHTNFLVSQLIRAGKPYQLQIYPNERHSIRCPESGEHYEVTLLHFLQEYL
# T3 sequence (P27487 whole entry, species assumed): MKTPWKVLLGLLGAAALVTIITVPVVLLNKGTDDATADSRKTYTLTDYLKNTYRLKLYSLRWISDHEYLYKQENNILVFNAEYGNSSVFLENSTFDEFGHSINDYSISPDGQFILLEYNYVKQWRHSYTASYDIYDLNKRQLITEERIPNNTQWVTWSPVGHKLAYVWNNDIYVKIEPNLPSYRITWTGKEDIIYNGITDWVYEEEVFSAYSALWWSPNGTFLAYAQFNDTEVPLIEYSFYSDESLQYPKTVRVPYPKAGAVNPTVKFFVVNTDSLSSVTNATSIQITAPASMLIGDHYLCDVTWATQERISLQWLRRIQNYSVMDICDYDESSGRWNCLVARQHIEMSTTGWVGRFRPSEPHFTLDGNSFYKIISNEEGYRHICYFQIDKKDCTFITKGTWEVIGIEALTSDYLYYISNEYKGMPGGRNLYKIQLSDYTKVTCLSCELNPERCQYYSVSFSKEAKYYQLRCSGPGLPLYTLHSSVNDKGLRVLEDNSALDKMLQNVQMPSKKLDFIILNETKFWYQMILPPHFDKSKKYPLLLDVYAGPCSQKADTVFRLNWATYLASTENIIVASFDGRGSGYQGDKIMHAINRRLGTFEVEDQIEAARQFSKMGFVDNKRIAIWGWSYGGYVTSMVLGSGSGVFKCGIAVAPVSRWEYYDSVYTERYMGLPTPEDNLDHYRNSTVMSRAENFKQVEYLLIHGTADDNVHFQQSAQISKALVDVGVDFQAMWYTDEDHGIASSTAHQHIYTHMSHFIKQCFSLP
# T4 sequence (Q6V1X1 whole entry, species assumed): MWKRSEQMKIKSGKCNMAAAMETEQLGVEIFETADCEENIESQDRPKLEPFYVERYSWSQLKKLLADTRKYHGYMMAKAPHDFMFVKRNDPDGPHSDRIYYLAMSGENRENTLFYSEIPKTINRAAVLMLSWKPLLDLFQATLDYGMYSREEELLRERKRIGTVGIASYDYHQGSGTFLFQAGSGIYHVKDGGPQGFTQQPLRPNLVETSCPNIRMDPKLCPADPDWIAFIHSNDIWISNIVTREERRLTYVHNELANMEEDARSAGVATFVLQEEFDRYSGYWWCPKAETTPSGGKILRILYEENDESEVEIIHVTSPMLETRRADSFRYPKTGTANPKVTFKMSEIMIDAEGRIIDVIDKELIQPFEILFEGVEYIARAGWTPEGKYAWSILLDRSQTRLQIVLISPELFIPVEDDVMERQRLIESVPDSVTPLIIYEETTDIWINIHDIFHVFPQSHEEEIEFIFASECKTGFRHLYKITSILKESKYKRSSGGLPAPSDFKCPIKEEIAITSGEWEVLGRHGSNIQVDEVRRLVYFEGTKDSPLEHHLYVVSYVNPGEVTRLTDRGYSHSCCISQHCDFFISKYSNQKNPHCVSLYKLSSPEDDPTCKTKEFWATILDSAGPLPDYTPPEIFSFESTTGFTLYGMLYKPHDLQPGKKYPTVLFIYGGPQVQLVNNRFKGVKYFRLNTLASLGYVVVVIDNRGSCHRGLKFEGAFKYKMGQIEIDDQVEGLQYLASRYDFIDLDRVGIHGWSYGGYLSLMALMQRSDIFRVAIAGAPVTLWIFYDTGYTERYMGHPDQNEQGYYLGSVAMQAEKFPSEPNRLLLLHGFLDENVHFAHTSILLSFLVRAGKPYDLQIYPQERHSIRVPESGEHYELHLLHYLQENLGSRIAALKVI
Structure (SMILES),IC50 [1] [nM],IC50 [2] [nM],IC50 [3] [nM],IC50 [4] [nM],IC50 [5] [nM]
"CN(CC(=O)O)C1(CCCCC(=O)N[C@@H](CCC(=O)NCCCCOc2ccc3nccc(C(=O)NCC(=O)N4CC(F)(F)C[C@H]4C#N)c3c2)C(=O)NCCCCOc2ccc3nccc(C(=O)NCC(=O)N4CC(F)(F)C[C@H]4C#N)c3c2)CN(CC(=O)O)CCN(CC(=O)O)C1 [DATA^5m.Glu.(FAPi)2, 2,2′-(6-(5-(((S)-1,5-bis((4-((4-((2-((S)-2-cyano-4,4-difluoropyrrolidin-1-yl)-2-oxoethyl)carbamoyl)quinolin-6-yl)oxy)butyl)amino)-1,5-dioxopentan-2-yl)amino)-5-oxopentyl)-6-((carboxymethyl)(methyl)amino)-1,4-diazepane-1,4-diyl)diacetic acid]",0.71 ± 0.05,310 ± 60,1570 ± 60,2220 ± 400,770 ± 110
"N#C[C@@H]1CC(F)(F)CN1C(=O)CNC(=O)c1ccnc2ccc(OCCCCNC(=O)CC[C@H](NC(=O)CCC(C(=O)O)N3CCN(CC(=O)O)CCN(CC(=O)O)CCN(CC(=O)O)CC3)C(=O)NCCCCOc3ccc4nccc(C(=O)NCC(=O)N5CC(F)(F)C[C@H]5C#N)c4c3)cc12 (stereo partly drawn) [DOTAGA.Glu.(FAPi)2, 2,2′,2″-(10-(4-(((S)-1,5-bis((4-((4-((2-((S)-2-cyano-4,4-difluoropyrrolidin-1-yl)-2-oxoethyl)carbamoyl)quinolin-6-yl)oxy)butyl)amino)-1,5-dioxopentan-2-yl)amino)-1-carboxy-4-oxobutyl)-1,4,7,10-tetraazacyclododecan-1,4,7-triyl)triacetic acid]",0.26 ± 0.04,590 ± 100,1190 ± 80,29 ± 4,83 ± 1.5
"N#C[C@@H]1CC(F)(F)CN1C(=O)CNC(=O)c1ccnc2ccccc12 [UAMC1110, (S)—N-(2-(2-cyano-4,4′-difluoropyrrolidin-1-yl)-2-oxoethyl)quinoline-4-carboxamide, reference compound]",,,,> 10000,
"N#C[C@@H]1CC(F)(F)CN1C(=O)CNC(=O)c1ccnc2ccc(OCCCCNC(=O)CC[C@H](NC(=O)CN3CCN(CC(=O)O)CCN(CC(=O)O)CCN(CC(=O)O)CC3)C(=O)NCCCCOc3ccc4nccc(C(=O)NCC(=O)N5CC(F)(F)C[C@H]5C#N)c4c3)cc12 [DOTA.Glu.(FAPi)2, 2,2′,2″-(10-(2-(((S)-1,5-bis((4-((4-((2-((S)-2-cyano-4,4-difluoropyrrolidin-1-yl)-2-oxoethyl)carbamoyl)quinolin-6-yl)oxy)butyl)amino)-1,5-dioxopentan-2-yl)amino)-2-oxoethyl)-1,4,7,10-tetraazacyclododecan-1,4,7-triyl)triacetic acid]",0.6 ± 0.04,1000 ± 140,540 ± 60,1030 ± 180,950 ± 110
